Measured values taken from patent US20260184706A1, “PHENYLSULFONAMIDE DERIVATIVES, PREPARATION METHOD THEREFOR, AND PHARMACEUTICAL COMPOSITION FOR PREVENTION OR TREATMENT OF CANCER CONTAINING SAME AS ACTIVE INGREDIENT” (Korea Research Institute of Chemical Technology, priority 2022, published 2026).

Columns and labels:
phosphorylated GCN2 = target: T1, phosphorylated GCN2 (Homo sapiens, UniProt Q9P2K8); assay: Inhibition of phosphorylated GCN2 under amino acid deficiency in HT-1080 cells, Western blot; type: cell-based; settings: compound 50 nM, 24 hours; for Phospho-GCN2 inhibition: symbols ◯ / X not defined
T1 construct: endogenous in cells; host or cells: HT-1080
T1 sequence (Q9P2K8 whole entry): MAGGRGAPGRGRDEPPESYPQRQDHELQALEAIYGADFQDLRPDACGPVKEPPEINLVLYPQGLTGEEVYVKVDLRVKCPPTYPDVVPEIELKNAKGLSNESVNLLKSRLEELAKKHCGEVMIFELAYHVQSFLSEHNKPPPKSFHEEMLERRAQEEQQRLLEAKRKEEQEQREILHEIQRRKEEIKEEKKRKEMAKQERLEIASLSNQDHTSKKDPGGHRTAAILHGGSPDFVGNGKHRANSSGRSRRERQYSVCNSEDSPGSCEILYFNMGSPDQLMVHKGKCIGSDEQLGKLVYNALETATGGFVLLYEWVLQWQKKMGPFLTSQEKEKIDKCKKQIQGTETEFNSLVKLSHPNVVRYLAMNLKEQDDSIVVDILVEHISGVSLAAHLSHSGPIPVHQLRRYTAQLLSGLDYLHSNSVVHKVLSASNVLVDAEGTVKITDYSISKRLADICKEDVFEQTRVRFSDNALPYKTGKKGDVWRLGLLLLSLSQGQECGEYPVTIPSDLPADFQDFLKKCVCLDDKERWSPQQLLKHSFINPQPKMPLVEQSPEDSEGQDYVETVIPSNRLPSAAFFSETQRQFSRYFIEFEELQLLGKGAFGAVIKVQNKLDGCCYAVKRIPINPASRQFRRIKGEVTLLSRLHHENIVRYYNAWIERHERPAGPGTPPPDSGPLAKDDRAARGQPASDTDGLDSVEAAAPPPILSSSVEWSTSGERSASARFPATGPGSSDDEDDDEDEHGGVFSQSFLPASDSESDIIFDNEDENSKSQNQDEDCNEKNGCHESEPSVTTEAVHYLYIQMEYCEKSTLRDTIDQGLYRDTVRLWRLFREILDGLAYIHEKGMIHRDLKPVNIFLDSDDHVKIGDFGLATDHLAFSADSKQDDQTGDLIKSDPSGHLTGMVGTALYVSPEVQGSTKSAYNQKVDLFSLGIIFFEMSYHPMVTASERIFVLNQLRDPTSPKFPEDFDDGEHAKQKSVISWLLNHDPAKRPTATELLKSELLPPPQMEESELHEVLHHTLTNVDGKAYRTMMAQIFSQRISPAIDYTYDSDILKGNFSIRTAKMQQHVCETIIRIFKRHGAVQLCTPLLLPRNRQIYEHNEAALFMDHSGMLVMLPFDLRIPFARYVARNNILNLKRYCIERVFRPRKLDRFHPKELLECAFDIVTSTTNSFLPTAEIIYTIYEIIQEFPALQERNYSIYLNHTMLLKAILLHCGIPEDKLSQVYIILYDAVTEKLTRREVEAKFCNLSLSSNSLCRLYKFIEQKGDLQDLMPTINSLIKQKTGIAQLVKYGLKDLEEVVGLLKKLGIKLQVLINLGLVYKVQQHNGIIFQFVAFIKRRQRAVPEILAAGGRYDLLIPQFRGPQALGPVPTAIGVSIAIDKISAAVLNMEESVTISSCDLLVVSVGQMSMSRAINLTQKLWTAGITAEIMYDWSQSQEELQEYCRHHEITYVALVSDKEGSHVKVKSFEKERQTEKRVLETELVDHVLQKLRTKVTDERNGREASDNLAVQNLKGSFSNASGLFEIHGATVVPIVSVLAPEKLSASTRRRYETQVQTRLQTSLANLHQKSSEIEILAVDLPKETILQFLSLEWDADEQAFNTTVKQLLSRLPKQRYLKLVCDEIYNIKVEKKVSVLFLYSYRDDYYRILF
Description: (§1) <Experimental Example 5> Evaluation of Inhibitory Efficacy of ISR-Related Kinase GCN2 Under Amino Acid Deficiency Condition Using Western Blot
(§2) HT-1080 cells, a human fibrosarcoma cell line, were cultured in RPMI-1640 medium supplemented with 10% FBS, penicillin (penicillin; 100 IU/ml), and streptomycin (streptomycin; 100 μg/ml). Cells (1×10^6 cells/ml) were seeded onto 100 mm plates (polypropylene tissue culture plate) and incubated for 24 hours in a 37° C., 5% CO2 incubator before being used for experiments.
(§3) The following method was used to achieve amino acid deficiency conditions in cells. After 24 hours of cell culture, the cells were cultured in amino acids and L-glutamine-free RPMI-1640 medium supplemented with 10% FBS, penicillin (100 IU/ml), and streptomycin (100 μg/ml). After 24 hours of cell culture in RPMI-1640 without amino acids and L-glutamine, the compound prepared at a concentration of 50 nM was dispensed onto each plate and cultured for 24 hours in a 37° C., 5% CO2 incubator.
(§4) In order to measure the signal transduction inhibitory efficacy of GCN among the ISR-related kinases according to the present invention, the following experiment was performed using SDS-PAGE. The fibrosarcoma cell line HT-1080 cells cultured on plates as described above were washed with PBS after removing the culture medium. After removing PBS, the cells were lysed by adding a radio-immunoprecipitation assay buffer (RIPA buffer) containing 50 mM Tris (pH 7.4), 150 mM NaCl, 1% NP-40, 0.5% sodium deoxycholate, 2 mM sodium fluoride, 2 mM EDTA, 0.1% SDS, and a protease/phosphatase inhibitor cocktail to the plate. After centrifugation at 4° C., 13,000×g for 15 minutes, the protein in the upper layer was collected, and the protein concentration was measured at 562 nm using BCA (bicinchoninc acid) reagent, and the amount of protein in all samples was prepared at 20-50 μg.
(§5) After making the total volume the same using the sample buffer and RIPA buffer, it was heated at 97° C. for 5 minutes. Then, electrophoresis was performed on 8% or 12% SDS-PAGE at 80 V for 30 minutes and at 160 V for 1 hour and 30 minutes. After electrophoresis, the SDS-PAGE gel was transferred to an NC membrane (nitrocellulose membrane) at 90 V for 2 hours. The NC membrane was placed in TBST (tris buffer saline tween-20; 20 mM tris, 137 mM sodium chloride, 0.1% tween-20, pH 8.0) containing 5% non-fat skim milk, placed on a shaker, and reacted at room temperature for 1 hour.
(§6) Each primary antibody was diluted in TBST containing 5% non-fat skim milk, poured onto the NC membrane, and reacted at 4° C. for 24 hours. The membrane was washed three times for 10 minutes each with TBST. The secondary antibodies (anti-rabbit IgG and anti-mouse IgG labeled with horseradish peroxidase (HRP)) were diluted in TBST containing 5% non-fat skim milk and reacted with the membrane at room temperature for 1 hour. Upon completion of the reaction, the membrane was washed three times with TBST for 10 minutes each. Protein expression bands were detected by a chemiluminescence image analyzer (Image Quant LAS 500) after the ECL solution was reacted with the NC membrane.
GCN2, a key kinase of the integrated stress response (ISR), is phosphorylated in response to amino acid deficiency.

[1] = target: recombinant human HRI protein (Homo sapiens, UniProt Q9BQI3); assay: eIF2-alpha kinase heme-regulated inhibitor (HRI) inhibitory capacity, 33P-ATP filter assay; type: biochemical; settings: 45 uM [gamma-33P-ATP], 40 minutes, room temperature
recombinant human HRI protein, sequence (Q9BQI3 whole entry): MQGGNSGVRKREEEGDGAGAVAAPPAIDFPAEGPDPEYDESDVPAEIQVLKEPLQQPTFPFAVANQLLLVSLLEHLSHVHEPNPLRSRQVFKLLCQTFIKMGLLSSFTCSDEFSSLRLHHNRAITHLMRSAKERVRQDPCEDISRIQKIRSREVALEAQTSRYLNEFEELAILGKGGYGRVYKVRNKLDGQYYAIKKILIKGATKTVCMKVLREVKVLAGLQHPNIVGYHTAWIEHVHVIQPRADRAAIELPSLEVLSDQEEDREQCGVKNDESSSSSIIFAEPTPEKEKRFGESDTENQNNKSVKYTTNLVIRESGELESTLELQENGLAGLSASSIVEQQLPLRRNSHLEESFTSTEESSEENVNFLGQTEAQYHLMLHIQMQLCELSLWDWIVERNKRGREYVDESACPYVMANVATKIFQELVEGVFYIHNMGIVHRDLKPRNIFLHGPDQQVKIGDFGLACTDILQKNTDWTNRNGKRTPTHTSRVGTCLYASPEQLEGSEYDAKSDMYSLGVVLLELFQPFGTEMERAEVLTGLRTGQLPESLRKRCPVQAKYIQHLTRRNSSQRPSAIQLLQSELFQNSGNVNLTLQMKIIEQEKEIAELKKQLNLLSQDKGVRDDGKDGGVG
Description: <Experimental Example 3> Evaluation of eIF2-Alpha Kinase Heme-Regulated Inhibitor (HRI) Inhibitory Capacity
A recombinant human HRI protein was mixed with the compound in a reaction solution (50 mM Tris/HCl pH 7.5, 0.04 mM EDTA, 300 uM RSRSRSRSRSRSRSR, 10 mM Magnesium acetate, 45 uM [gamma-33P-ATP]) and reacted at room temperature for 40 minutes. Then, the reaction was terminated by adding phosphoric acid (0.5%) to the reaction mixture, and […] of the reaction solution was dropped onto a P30 filter. The filter was washed four times in a 0.425% phosphoric acid solution for 4 minutes, then […] washed once more in methanol, dried, and the HRI activity was measured by scintillation counting. […] The compound was diluted by 1/3 from the highest concentration of 1 uM and treated with a total of 9 concentrations to evaluate the degree of inhibition.

ATF4 = assay: Inhibition of ATF4, downstream factor of ISR, in HT-1080 cells, Western blot (FIG. 1); type: cell-based, human; settings: amino acid deficiency, compound 50 nM, 24 hours
Description: as §1, §2, §3, §4, §5, §6
FIG. 1 is a set of photographs confirming the mechanism proteins that react upon ISR activation, wherein the numbers correspond to example numbers of the present invention. […] They are also known to have an effect on increasing the expression of CHOP (GADD153), the most downstream factor of the mechanism. […] Thus, in addition to the activation of ISR by amino acid deficiency, a significant effect can be expected on the mechanism of inhibition of the activity of PERK, an ISR-related kinase, due to endoplasmic reticulum stress response.

Row | Compound | inhibitory effect on the phosphorylated GCN2 (phosphorylated GCN2) | Phospho-GCN2 inhibition (phosphorylated GCN2) | IC50 [1] [µM] | inhibitory effect on ATF4 (FIG. 1) (ATF4)
1 | COc1ncc(Cl)cc1S(=O)(=O)Nc1ccc(F)c(-n2cc(C(F)F)c3nc(N)ncc3c2=O)c1F [Example 22, N-(3-(2-amino-8-(difluoromethyl)-5-oxopirido[4,3-d]pyrimidin-6(5H)-yl)-2,4-difluorophenyl)-5-chloro-2-methoxypyridine-3-sulfonamide] | excellent inhibitory effects | ◯ | < 0.1 | excellent inhibitory effects
2 | Nc1ncc2c(=O)n(-c3c(F)ccc(NS(=O)(=O)c4cc(Cl)cnc4Cl)c3F)ccc2n1 [Example 27, N-(3-(2-amino-5-oxopirido[4,3-d]pyrimidin-6(5H)-yl)-2,4-difluorophenyl)-2,5-dichloropyridine-3-sulfonamide] | excellent inhibitory effect | ◯ | < 0.1 | 
3 | Nc1ncc2c(=O)n(-c3c(F)ccc(NS(=O)(=O)c4cccc5ccccc45)c3F)ccc2n1 [Example 29, N-(3-(2-amino-5-oxopirido[4,3-d]pyrimidin-6(5H)-yl)-2,4-difluorophenyl)naphthalene-1-sulfonamide] | excellent inhibitory effects | ◯ | < 0.1 | excellent inhibitory effects

Second part, led by results:

Row | inhibitory effect on the phosphorylated GCN2 (phosphorylated GCN2) | Phospho-GCN2 inhibition (phosphorylated GCN2) | IC50 [1] [µM] | Compound | inhibitory effect on ATF4 (FIG. 1) (ATF4)
4 | excellent inhibitory effect | ◯ | < 0.1 | CNc1ncc2c(=O)n(-c3c(F)ccc(NS(=O)(=O)c4cc(Cl)cnc4OC)c3F)ccc2n1 [Example 32, 5-chloro-N-(2,4-difluoro-3-(2-(methylamino)-5-oxopirido[4,3-d]pyrimidin-6(5H)-yl)phenyl)-2-methoxypyridine-3-sulfonamide] | 
5 | excellent inhibitory effects | ◯ | < 0.1 | COc1ncc(Cl)cc1S(=O)(=O)Nc1ccc(F)c(-n2c(=O)c3cnc(N)nc3n(C)c2=O)c1F [Example 44, N-(3-(7-amino-1-methyl-2,4-dioxo-1,4-dihydropyrimido[4,5-d]pyrimidin-3(2H)-yl)-2,4-difluorophenyl)-5-chloro-2-methoxypyridine-3-sulfonamide] | excellent inhibitory effects
6 | excellent inhibitory effects | ◯ | 0.1 to 0.3 | COc1ncc(Br)cc1S(=O)(=O)Nc1ccc(F)c(-n2c(=O)c3cnc(N)nc3n(C)c2=O)c1F [Example 46, N-(3-(7-amino-1-methyl-2,4-dioxo-1,4-dihydropyrimido[4,5-d]pyrimidin-3(2H)-yl)-2,4-difluorophenyl)-5-bromo-2-methoxypyridine-3-sulfonamide] | excellent inhibitory effects
